PMC9145765, “Identification and Molecular Characterization of the Operon Required for L-Asparagine Utilization in Corynebacterium glutamicum” (Microorganisms, 2022)

Key:
[1] = molecular target: T1, AnsR (Corynebacterium glutamicum, UniProt A0AB72VEC9); assay: EMSA, release of promoter DNA from His-tagged AnsR; settings: effector abolishing operator DNA binding; […] L-Asn preincubated […] min; pH […]; room temperature
T1 construct: gene cgR_2807; His-tagged (pColdI, plasmid pCRC667), E. coli BL21(DE3), Ni-NTA; annotated start codon is wrong, true start is the ATG 12 nt downstream
T1 sequence (A0AB72VEC9 5-238 limits assumed): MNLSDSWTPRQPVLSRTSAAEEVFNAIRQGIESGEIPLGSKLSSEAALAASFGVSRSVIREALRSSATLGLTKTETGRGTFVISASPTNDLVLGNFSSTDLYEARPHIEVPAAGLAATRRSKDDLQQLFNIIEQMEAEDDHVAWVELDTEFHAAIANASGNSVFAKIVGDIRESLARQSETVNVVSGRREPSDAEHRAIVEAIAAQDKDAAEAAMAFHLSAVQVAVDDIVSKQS

[2] = system: T2, AnsR (Corynebacterium glutamicum R (JCM 18229)), ORF:3b2fc73c; assay: EMSA; settings: 20 mM Tris-HCl pH 8.0, 100 mM NaCl, 3 mM MgCl2, 5 mM CaCl2, 0.1 mM EDTA, 0.1 mM DTT, 10% glycerol, 0.15 mg/mL BSA, room temperature, 25 min; 5% PAGE in 0.5x …
T2 sequence: T1 sequence (A0AB72VEC9 5-238 limits assumed)

Compound | EMSA, release of promoter DNA from His-tagged AnsR [1] | binding [2]
NC(=O)C[C@H](N)C(=O)O [L-Asn] | L-Asn inhibited the binding of AnsR to the site | 
GTTCATGGTGAACATCATGCATTGTGATGCACCTTACGTCAAGGACTTCTTGTTAAGTGATTCTCTTTGTGCAGGTTATGGCAATAAAAAGAACCTGCCCCGAAAAGGGAACAGGCTCTTTTTTCGGTAAGGGTTAAGCCAATGAAGCAAGTCCGAACATTGCGTAAGCCATGATGAAACCAACGATGGCAATACAGGTCTGGTTCACGGTCCAG (double strand) [probe -209 to +6] |  | no binding
